Measurements as given in ChEMBL document CHEMBL1201862, “PubChem BioAssay data set” (2004).
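Where inhibition never reached the appropriate level, the endpoint shown equals the highest concentration tested. Otherwise, values were interpolated linearly from a five-concentration, 48-hour dose response in 96-well plates. GI50: concentration for 50% inhibition of growth.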 Calls of active or inactive are those of the source. No stated cut-off is given here; in the data, active = GI50 up to about 1.1 µM and inactive = higher.

What was measured:
Assay in all cases: growth of human tumour cells (NCI), 48 h
MCF7 = tested on: MCF7
SK-MEL-5 = tested on: SK-MEL-5
KM-20L2 = tested on: KM-20L2
HCT-116 = tested on: HCT-116
MOLT-4 = tested on: MOLT-4
M19-MEL = tested on: M19-MEL
XF498 = tested on: XF498
HOP-92 = tested on: HOP-92
SF-295 = tested on: SF-295
UO-31 = tested on: UO-31
SK-MEL-2 = tested on: SK-MEL-2
A498 = tested on: A498
RPMI-8226 = tested on: RPMI-8226
HOP-62 = tested on: HOP-62
SNB-19 = tested on: SNB-19
EKVX = tested on: EKVX
DMS-273 = tested on: DMS-273
HCT-15 = tested on: HCT-15
SK-MEL-28 = tested on: SK-MEL-28
HCC 2998 = tested on: HCC 2998
HL-60 = tested on: HL-60
NCI-H23 = tested on: NCI-H23
NCI-H460 = tested on: NCI-H460
CAKI-1 = tested on: CAKI-1
LOX IMVI = tested on: LOX IMVI
SK-OV-3 = tested on: SK-OV-3
CCRF-CEM = tested on: CCRF-CEM
IGROV-1 = tested on: IGROV-1
A549 = tested on: A549
Malme-3M = tested on: Malme-3M
COLO 205 = tested on: COLO 205
OVCAR-4 = tested on: OVCAR-4
DMS-114 = tested on: DMS-114
HT-29 = tested on: HT-29
K562 = tested on: K562
UACC-257 = tested on: UACC-257
SF-539 = tested on: SF-539
SW-620 = tested on: SW-620
UACC-62 = tested on: UACC-62
RXF 393 = tested on: RXF 393
SF-268 = tested on: SF-268
NCI-H522 = tested on: NCI-H522
SN12C = tested on: SN12C
OVCAR-8 = tested on: OVCAR-8
NCI/ADR-RES = tested on: NCI/ADR-RES
DLD-1 = tested on: DLD-1
NCI-H226 = tested on: NCI-H226
KM12 = tested on: KM12
OVCAR-3 = tested on: OVCAR-3
HOP-18 = tested on: HOP-18
U-251 = tested on: U-251
SNB-75 = tested on: SNB-75
SNB-78 = tested on: SNB-78
OVCAR-5 = tested on: OVCAR-5
LXFL 529 = tested on: LXFL 529
ACHN = tested on: ACHN
M14 = tested on: M14
TK-10 = tested on: TK-10
SR = tested on: SR
786-0 = tested on: 786-0

## Cc1nc2ccccc2c(=O)n1CC(=O)O
MCF7
  GI50: > 100 µM (inactive)
SK-MEL-5
  GI50: > 100 µM (inactive)
KM-20L2
  GI50: > 100 µM (inactive)
HCT-116
  GI50: > 100 µM (inactive)
MOLT-4
  GI50: > 100 µM (inactive)
M19-MEL
  GI50: > 100 µM (inactive)
XF498
  GI50: > 100 µM (inactive)
HOP-92
  GI50: > 100 µM (inactive)
SF-295
  GI50: > 100 µM (inactive)
UO-31
  GI50: > 100 µM (inactive)
SK-MEL-2
  GI50: > 100 µM (inactive)
A498
  GI50: > 100 µM (inactive)
RPMI-8226
  GI50: > 100 µM (inactive)
HOP-62
  GI50: > 100 µM (inactive)
SNB-19
  GI50: > 100 µM (inactive)
EKVX
  GI50: > 100 µM (inactive)
DMS-273
  GI50: > 100 µM (inactive)
HCT-15
  GI50: > 100 µM
SK-MEL-28
  GI50: > 100 µM (inactive)
HCC 2998
  GI50: > 100 µM (inactive)
HL-60
  GI50: > 100 µM (inactive)
NCI-H23
  GI50: > 100 µM (inactive)
NCI-H460
  GI50: > 100 µM (inactive)
CAKI-1
  GI50: > 100 µM (inactive)
LOX IMVI
  GI50: > 100 µM (inactive)
SK-OV-3
  GI50: > 100 µM (inactive)
CCRF-CEM
  GI50: > 100 µM (inactive)
IGROV-1
  GI50: > 100 µM (inactive)
A549
  GI50: > 100 µM (inactive)
Malme-3M
  GI50: > 100 µM (inactive)
COLO 205
  GI50: > 100 µM (inactive)
OVCAR-4
  GI50: > 100 µM (inactive)
DMS-114
  GI50: > 100 µM (inactive)
HT-29
  GI50: > 100 µM (inactive)
K562
  GI50: > 100 µM (inactive)
UACC-257
  GI50: > 100 µM (inactive)
SF-539
  GI50: > 100 µM (inactive)
SW-620
  GI50: > 100 µM (inactive)
UACC-62
  GI50: > 100 µM (inactive)
RXF 393
  GI50: > 100 µM (inactive)
SF-268
  GI50: > 100 µM (inactive)
NCI-H522
  GI50: > 100 µM (inactive)
SN12C
  GI50: > 100 µM (inactive)
OVCAR-8
  GI50: > 100 µM (inactive)
NCI/ADR-RES
  GI50: > 100 µM (inactive)
DLD-1
  GI50: > 100 µM (inactive)
NCI-H226
  GI50: > 100 µM (inactive)
KM12
  GI50: > 100 µM (inactive)
OVCAR-3
  GI50: > 100 µM (inactive)
HOP-18
  GI50: > 100 µM (inactive)
U-251
  GI50: > 100 µM (inactive)
SNB-75
  GI50: > 100 µM (inactive)
SNB-78
  GI50: > 100 µM (inactive)
OVCAR-5
  GI50: > 100 µM (inactive)

## COc1cccc(-c2cc(O)c3ccccc3n2)c1
SK-MEL-5
  GI50: 4.48 µM (inactive)
KM-20L2
  GI50: 9.77 µM (inactive)
HCT-116
  GI50: 5.53 µM (inactive)
MOLT-4
  GI50: 6.55 µM (inactive)
M19-MEL
  GI50: 8.15 µM (inactive)
XF498
  GI50: 4.07 µM (inactive)
SF-295
  GI50: 2.81 µM (inactive)
UO-31
  GI50: 6.18 µM (inactive)
SK-MEL-2
  GI50: 24.9 µM (inactive)
LXFL 529
  GI50: 4.86 µM (inactive)
A498
  GI50: 11.4 µM (inactive)
RPMI-8226
  GI50: 5.45 µM (inactive)
ACHN
  GI50: 6.92 µM (inactive)
HOP-62
  GI50: 8.18 µM (inactive)
SNB-19
  GI50: 6.82 µM (inactive)
EKVX
  GI50: 52.2 µM (inactive)
DMS-273
  GI50: 4.53 µM (inactive)
HCT-15
  GI50: 4.7 µM
SK-MEL-28
  GI50: > 100 µM (inactive)
HCC 2998
  GI50: 6.58 µM (inactive)
HL-60
  GI50: 2.98 µM (inactive)
NCI-H23
  GI50: 7.52 µM (inactive)
NCI-H460
  GI50: 4.59 µM (inactive)
LOX IMVI
  GI50: 5.18 µM (inactive)
SK-OV-3
  GI50: 5.38 µM (inactive)
CCRF-CEM
  GI50: 4.56 µM (inactive)
M14
  GI50: 4.82 µM (inactive)
IGROV-1
  GI50: 17.2 µM (inactive)
TK-10
  GI50: > 100 µM (inactive)
A549
  GI50: 6.92 µM (inactive)
Malme-3M
  GI50: 3.89 µM (inactive)
COLO 205
  GI50: 4.93 µM (inactive)
OVCAR-4
  GI50: > 100 µM (inactive)
DMS-114
  GI50: 4.69 µM (inactive)
HT-29
  GI50: 3.82 µM (inactive)
K562
  GI50: 4.72 µM (inactive)
UACC-257
  GI50: 2.32 µM (inactive)
SF-539
  GI50: 3.57 µM (inactive)
SW-620
  GI50: 3.28 µM (inactive)
UACC-62
  GI50: 4.06 µM (inactive)
RXF 393
  GI50: 2.79 µM (inactive)
SF-268
  GI50: 10.3 µM (inactive)
SR
  GI50: 5.5 µM (inactive)
NCI-H522
  GI50: 3.06 µM (inactive)
786-0
  GI50: 5.25 µM (inactive)
SN12C
  GI50: 6.46 µM (inactive)
OVCAR-8
  GI50: 6.24 µM (inactive)
DLD-1
  GI50: 3.63 µM (inactive)
NCI-H226
  GI50: 6.89 µM (inactive)
KM12
  GI50: 4.03 µM (inactive)
OVCAR-3
  GI50: 4.2 µM (inactive)
HOP-18
  GI50: 15.2 µM (inactive)
U-251
  GI50: 9.53 µM (inactive)
SNB-75
  GI50: 4.98 µM (inactive)
OVCAR-5
  GI50: 7.43 µM (inactive)
